The values below come from USRE29244E, “Coccidiostats” (priority 1976, dated 1977).

Where a name gives a salt, the structure may show the parent alone.

The nature of series [1]: Acute oral toxicity in broiler chicks. The note with it: chicken, in vivo; oral single dose, 9- or 8-day-old chicks; limits given as 59 ±3 mg. and 84 ±7 mg.
In another series the test system is Eimeria tenella. Kind of series: Eimeria tenella infection in laboratory chickens. More on the design: Average degree of infection: scale not given here. The class given is in vivo. How it is done:
(A) Eimeria tanella infection in laboratory chickens
Test method.--This test utilizes ten chickens per drug group. Ten chickens are employed as a weight control and ten chickens as an infected control. The drug is given 48 hours in advance of the infection. One gm. of the test drug is mixed in a mechanical mixer with a sufficient amount of chicken feed to result in the desired dosage. The infection consists of approximately 200,000 oocysts given orally by pipette. The tests lasts for eleven days and then the surviving birds are autopsied and examined for gross lesions in the ceca. The test birds are rated according to the number of survivors and the number of cecal lesions. The results are expressed as average degree of infection (A.D.I.). An average degree of infection of less than 2.5 is considered significant.

For orientation: LD50 means the dose at which mortality reaches 50%. As for `CCC(C(=O)C(C)C(O)C(C)CCc1ccc(C)c(O)c1C(=O)O)C1OC(CC)(C2CCC(O)(CC)C(C)O2)CC1C` (stereo not drawn) [sodium salt of antibiotic X-537A], the LD50 in series [1] was 59 to 84 mg/kg. Also, the entries for the “Average degree of infection” value in the series with Eimeria tenella (text: 0.003% of active ingredient in feed to chicks) and in the series on Eimeria tenella (text: 0.006% of active ingredient in feed to chicks) were 1.7 and 0.2, respectively.
